{"source": "paper PMC11206203", "about": "“Peptide macrocyclisation via intramolecular interception of visible-light-mediated desulfurisation” (Chemical Science, 2024)", "key": {"[1]": {"assay": "Same desulfurative C-C cyclisation as series A (TCEP, Ir photocatalyst, blue light) with N-terminal Cys and C-terminal allylglycine (reversed pentapeptides)", "conditions": "the molecule shown is the open-chain precursor; 17-membered ring; 6 M Gdn.HCl, 0.1 M Na2HPO4 pH 7.5-8.0 / MeCN 9:1; 0.5 mM; 25.0 °C"}, "[2]": {"assay": "C(sp3)-C(sp3) bond formation by visible-light-mediated Cys desulfurisation: alanyl radical adds to terminal alkene of allylglycine (or O-allyl Ser, pentenylGly, acrylamide); TCEP 50 eq (25 mM), (Ir[dF(CF3)ppy]2(dtbpy))PF6 1 mol%, 450 nm blue LED; unprotected peptides", "conditions": "6 M Gdn.HCl, 0.1 M Na2HPO4 pH 7.5-8.0 / MeCN 9:1, 0.5 mM, 25.0 °C"}}, "data": [{"smiles": "C=CC[C@H](NC(=O)[C@H](CCCNC(=N)N)NC(=O)[C@H](Cc1c[nH]c2ccccc12)NC(=O)[C@@H](NC(=O)[C@@H](N)CS)[C@@H](C)CC)C(N)=O", "note": "[H-Cys-Ile-Trp-Arg-(allylGly)-NH2]", "values": [{"measurement": "ring closure, conversion by HPLC", "setting": "[1]", "value": 0, "unit": "%"}]}, {"smiles": "C=CC[C@H](NC(=O)[C@H](CCSC)NC(=O)[C@H](Cc1ccc(O)cc1)NC(=O)[C@H](CC(C)C)NC(=O)[C@H](CS)NC(C)=O)C(N)=O", "note": "[Ac-Cys-Leu-Tyr-Met-(allylGly)-NH2]", "values": [{"measurement": "ring closure, conversion by HPLC", "setting": "[1]", "value": 21, "unit": "%"}]}, {"smiles": "C=CC[C@H](NC(=O)[C@H](CCC(=O)O)NC(=O)[C@H](Cc1ccccc1)NC(=O)[C@H](C)NC(=O)[C@H](CS)NC(C)=O)C(N)=O", "note": "[Ac-Cys-Ala-Phe-Glu-(allylGly)-NH2]", "values": [{"measurement": "ring closure, conversion by HPLC", "setting": "[1]", "value": 0, "unit": "%"}]}, {"smiles": "C=CC[C@H](NC(=O)[C@H](CCSC)NC(=O)[C@H](Cc1ccc(O)cc1)NC(=O)[C@H](CC(C)C)NC(=O)[C@@H](N)CS)C(N)=O", "note": "[H-Cys-Leu-Tyr-Met-(allylGly)-NH2]", "values": [{"measurement": "ring closure, conversion by HPLC", "setting": "[1]", "value": 0, "unit": "%"}]}, {"smiles": "C=CC[C@H](NC(=O)[C@H](CCC(=O)O)NC(=O)[C@H](Cc1ccccc1)NC(=O)[C@H](C)NC(=O)[C@@H](N)CS)C(N)=O", "note": "[H-Cys-Ala-Phe-Glu-(allylGly)-NH2]", "values": [{"measurement": "ring closure, conversion by HPLC", "setting": "[1]", "value": 25, "unit": "%"}]}, {"smiles": "C=CC[C@H](NC(=O)[C@H](CCCCN)NC(=O)[C@@H]1CCCN1C(=O)[C@@H](NC(=O)[C@H](CS)NC(C)=O)[C@@H](C)O)C(N)=O", "note": "[Ac-Cys-Thr-Pro-Lys-(allylGly)-NH2]", "values": [{"measurement": "ring closure, conversion by HPLC", "setting": "[1]", "value": 0, "unit": "%"}]}, {"smiles": "C=CC[C@H](NC(=O)[C@H](CCC(N)=O)NC(=O)[C@H](Cc1c[nH]cn1)NC(=O)[C@@H](NC(=O)[C@@H](N)CS)C(C)C)C(N)=O", "note": "[H-Cys-Val-His-Gln-(allylGly)-NH2]", "values": [{"measurement": "ring closure, conversion by HPLC", "setting": "[1]", "value": 0, "unit": "%"}]}, {"smiles": "CCCC[C@@H]1NC(=O)[C@H](CO)NC(=O)[C@H](CC(=O)O)NC(=O)CNC(=O)[C@H](C(C)C)NC(=O)[C@H](CCC(N)=O)NC(=O)[C@@H](NC(=O)[C@H](CC(C)C)NC(=O)[C@H](Cc2c[nH]cn2)NC(=O)[C@H](CCCNC(=N)N)NC(C)=O)CCCC[C@@H](C(=O)N[C@@H](CCCNC(=N)N)C(=O)N[C@@H](CO)C(=O)N[C@H](C(N)=O)[C@@H](C)CC)NC1=O", "values": [{"measurement": "ring closure, isolated yield", "setting": "[2]; from C=CC[C@H](NC(=O)[C@H](CC(C)C)NC(=O)[C@H](Cc1c[nH]cn1)NC(=O)[C@H](CCCNC(=N)N)NC(C)=O)C(=O)N[C@@H](CCC(N)=O)C(=O)N[C@H](C(=O)NCC(=O)N[C@@H](CC(=O)O)C(=O)N[C@@H](CO)C(=O)N[C@@H](CCCC)C(=O)N[C@@H](CS)C(=O)N[C@@H](CCCNC(=N)N)C(=O)N[C@@H](CO)C(=O)N[C@H](C(N)=O)[C@@H](C)CC)C(C)C, 26-membered ring", "value": 23, "unit": "%"}]}, {"smiles": "C[C@@H]1NC(=O)[C@H](Cc2ccccc2)NC(=O)[C@H](C)NC(=O)[C@@H](N)CCCCCC[C@@H](C(N)=O)NC1=O", "note": "[H-(4-pentenylGly)-Ala-Phe-Ala-Cys-NH2]", "values": [{"measurement": "ring closure, isolated yield", "setting": "[2]; from C=CCCC[C@H](N)C(=O)N[C@@H](C)C(=O)N[C@@H](Cc1ccccc1)C(=O)N[C@@H](C)C(=O)N[C@@H](CS)C(N)=O, 19-membered ring, 1.0 h", "value": 32, "unit": "%"}]}, {"smiles": "CSCC[C@@H]1NC(=O)[C@H](Cc2ccc(O)cc2)NC(=O)[C@H](CC(C)C)NC(=O)[C@@H](NC(C)=O)CCCC[C@@H](C(N)=O)NC1=O", "note": "[Ac-(allylGly)-Leu-Tyr-Met-Cys-NH2]", "values": [{"measurement": "ring closure, isolated yield", "setting": "[2]; from C=CC[C@H](NC(C)=O)C(=O)N[C@@H](CC(C)C)C(=O)N[C@@H](Cc1ccc(O)cc1)C(=O)N[C@@H](CCSC)C(=O)N[C@@H](CS)C(N)=O, 17-membered ring", "value": 69, "unit": "%"}]}, {"smiles": "CSCC[C@@H]1NC(=O)[C@@H](N)CCCC[C@@H](C(N)=O)NC(=O)[C@H](CCCNC(=N)N)NC(=O)[C@H](CC(C)C)NC(=O)[C@H](Cc2c[nH]c3ccccc23)NC(=O)[C@@H]2CCCN2C1=O", "note": "[H-(allylGly)-Met-Pro-Trp-Leu-Arg-Cys-NH2]", "values": [{"measurement": "ring closure, isolated yield", "setting": "[2]; from C=CC[C@H](N)C(=O)N[C@@H](CCSC)C(=O)N1CCC[C@H]1C(=O)N[C@@H](Cc1c[nH]c2ccccc12)C(=O)N[C@@H](CC(C)C)C(=O)N[C@@H](CCCNC(=N)N)C(=O)N[C@@H](CS)C(N)=O, 23-membered ring", "value": 65, "unit": "%"}]}, {"smiles": "C=CC[C@H](NC(=O)[C@H](CCCNC(=N)N)NC(=O)[C@H](Cc1c[nH]c2ccccc12)NC(=O)[C@@H](NC(=O)[C@H](CS)NC(C)=O)[C@@H](C)CC)C(N)=O", "note": "[Ac-Cys-Ile-Trp-Arg-(allylGly)-NH2]", "values": [{"measurement": "ring closure, conversion by HPLC", "setting": "[1]", "value": 7, "unit": "%"}]}, {"smiles": "C=CC[C@H](NC(=O)[C@H](CCCCN)NC(=O)[C@@H]1CCCN1C(=O)[C@@H](NC(=O)[C@@H](N)CS)[C@@H](C)O)C(N)=O", "note": "[H-Cys-Thr-Pro-Lys-(allylGly)-NH2]", "values": [{"measurement": "ring closure, conversion by HPLC", "setting": "[1]", "value": 0, "unit": "%"}]}, {"smiles": "CC[C@H](C)[C@@H]1NC(=O)[C@H](CCCCN)NC(=O)[C@H](Cc2ccc(O)cc2)NC(=O)[C@H](CO)NC(=O)[C@H](CC(=O)O)NC(=O)[C@@H](NC(C)=O)CCCC[C@@H](C(N)=O)NC1=O", "note": "[Ac-(allylGly)-Asp-Ser-Tyr-Lys-Ile-Cys-NH2]", "values": [{"measurement": "ring closure, isolated yield", "setting": "[2]; from C=CC[C@H](NC(C)=O)C(=O)N[C@@H](CC(=O)O)C(=O)N[C@@H](CO)C(=O)N[C@@H](Cc1ccc(O)cc1)C(=O)N[C@@H](CCCCN)C(=O)N[C@H](C(=O)N[C@@H](CS)C(N)=O)[C@@H](C)CC, 23-membered ring", "value": 58, "unit": "%"}]}, {"smiles": "CC[C@H](C)[C@@H]1NC(=O)[C@H](Cc2ccc(O)cc2)NC(=O)[C@@H](N)CCCC[C@@H](C(=O)N2CCC[C@H]2C(=O)N[C@@H](CC(C)C)C(=O)NCC(N)=O)NC(=O)[C@H](CC(N)=O)NC(=O)[C@H](CCC(N)=O)NC1=O", "note": "[H-Cys-Tyr-Ile-Gln-Asn-(allylGly)-Pro-Leu-Gly-NH2]", "values": [{"measurement": "ring closure, isolated yield", "setting": "[2]; from C=CC[C@H](NC(=O)[C@H](CC(N)=O)NC(=O)[C@H](CCC(N)=O)NC(=O)[C@@H](NC(=O)[C@H](Cc1ccc(O)cc1)NC(=O)[C@@H](N)CS)[C@@H](C)CC)C(=O)N1CCC[C@H]1C(=O)N[C@@H](CC(C)C)C(=O)NCC(N)=O, 20-membered ring", "value": 52, "unit": "%"}]}, {"smiles": "C=CC[C@H](NC(=O)[C@H](CCC(N)=O)NC(=O)[C@H](Cc1c[nH]cn1)NC(=O)[C@@H](NC(=O)[C@H](CS)NC(C)=O)C(C)C)C(N)=O", "note": "[Ac-Cys-Val-His-Gln-(allylGly)-NH2]", "values": [{"measurement": "ring closure, conversion by HPLC", "setting": "[1]", "value": 28, "unit": "%"}]}, {"smiles": "CC(=O)N[C@H]1CCCC[C@@H](C(N)=O)NC(=O)[C@H](CCC(=O)O)NC(=O)[C@H](Cc2ccccc2)NC(=O)[C@H](C)NC1=O", "note": "[Ac-(allylGly)-Ala-Phe-Glu-Cys-NH2]", "values": [{"measurement": "ring closure, isolated yield", "setting": "[2]; from C=CC[C@H](NC(C)=O)C(=O)N[C@@H](C)C(=O)N[C@@H](Cc1ccccc1)C(=O)N[C@@H](CCC(=O)O)C(=O)N[C@@H](CS)C(N)=O, 17-membered ring", "value": 74, "unit": "%"}]}, {"smiles": "CC[C@H](C)[C@@H]1NC(=O)[C@H](CCCCN)NC(=O)[C@@H](NC(C)=O)CCCC[C@@H](C(N)=O)NC(=O)[C@H](Cc2ccc(O)cc2)NC(=O)[C@H](CO)NC1=O", "note": "[Ac-Cys-Lys-Ile-Ser-Tyr-(allylGly)-NH2]", "values": [{"measurement": "ring closure, isolated yield", "setting": "[2]; from C=CC[C@H](NC(=O)[C@H](Cc1ccc(O)cc1)NC(=O)[C@H](CO)NC(=O)[C@@H](NC(=O)[C@H](CCCCN)NC(=O)[C@H](CS)NC(C)=O)[C@@H](C)CC)C(N)=O, 20-membered ring", "value": 64, "unit": "%"}]}, {"smiles": "CC[C@H](C)[C@@H]1NC(=O)[C@H](CCCCN)NC(=O)[C@@H](NC(C)=O)CCCC[C@@H](C(N)=O)NC(=O)[C@H](Cc2ccc(O)cc2)NC(=O)[C@H](CO)NC1=O", "note": "[Ac-(allylGly)-Lys-Ile-Ser-Tyr-Cys-NH2]", "values": [{"measurement": "ring closure, isolated yield", "setting": "[2]; from C=CC[C@H](NC(C)=O)C(=O)N[C@@H](CCCCN)C(=O)N[C@H](C(=O)N[C@@H](CO)C(=O)N[C@@H](Cc1ccc(O)cc1)C(=O)N[C@@H](CS)C(N)=O)[C@@H](C)CC, 20-membered ring", "value": 64, "unit": "%"}]}, {"smiles": "CCCC[C@@H]1NC(=O)[C@H](CO)NC(=O)[C@H](CC(=O)O)NC(=O)CNC(=O)[C@H](C(C)C)NC(=O)[C@H](CCC(N)=O)NC(=O)[C@@H](NC(C)=O)CCCC[C@@H](C(N)=O)NC1=O", "note": "[Ac-(allylGly)-Gln-Val-Gly-Asp-Ser-Nle-Cys-NH2]", "values": [{"measurement": "ring closure, isolated yield", "setting": "[2]; from C=CC[C@H](NC(C)=O)C(=O)N[C@@H](CCC(N)=O)C(=O)N[C@H](C(=O)NCC(=O)N[C@@H](CC(=O)O)C(=O)N[C@@H](CO)C(=O)N[C@@H](CCCC)C(=O)N[C@@H](CS)C(N)=O)C(C)C, 26-membered ring", "value": 76, "unit": "%"}]}, {"smiles": "CC(C)C[C@@H]1NC(=O)[C@H](CC(=O)O)NC(=O)[C@H](CCC(=O)O)NC(=O)[C@@H](N)CCCC[C@@H](C(N)=O)NC(=O)[C@H](CCC(N)=O)NC(=O)[C@H](Cc2ccc(O)cc2)NC(=O)[C@H](Cc2ccccc2)NC1=O", "note": "[H-(allylGly)-Glu-Asp-Leu-Phe-Tyr-Gln-Cys-NH2]", "values": [{"measurement": "ring closure, isolated yield", "setting": "[2]; from C=CC[C@H](N)C(=O)N[C@@H](CCC(=O)O)C(=O)N[C@@H](CC(=O)O)C(=O)N[C@@H](CC(C)C)C(=O)N[C@@H](Cc1ccccc1)C(=O)N[C@@H](Cc1ccc(O)cc1)C(=O)N[C@@H](CCC(N)=O)C(=O)N[C@@H](CS)C(N)=O, 26-membered ring", "value": 65, "unit": "%"}]}, {"smiles": "C[C@@H]1NC(=O)[C@H](Cc2ccccc2)NC(=O)[C@H](C)NC(=O)[C@@H](N)CCCC[C@@H](C(N)=O)NC1=O", "note": "[H-(allylGly)-Ala-Phe-Ala-Cys-NH2]", "values": [{"measurement": "ring closure, isolated yield", "setting": "[2]; from C=CC[C@H](N)C(=O)N[C@@H](C)C(=O)N[C@@H](Cc1ccccc1)C(=O)N[C@@H](C)C(=O)N[C@@H](CS)C(N)=O, 17-membered ring, 0.75 h", "value": 79, "unit": "%"}]}]}
